In US6524625B2, “Physiologically active extract obtained from indigo plant polygonum tinctorium” (Kabushiki Kaisha Hayashibara Seibutsu Kagaku Kenkyuto, priority 1998, dated 2003):
≈ marks a conversion by molar mass, not a printed value. Where two headings read alike, the source gives them in different places.

Legend:
[1] = system: vesicular stomatitis virus (VSV); test: microbe, parasite or virus in culture; type: cell-based; details: L929, 24 h, read-out: 50% Growth inhibitory concentration
[2] = system: Helicobacter pylori (NCTC 11638); test: Antiseptic action: MIC, agar plate dilution method; type: cell-based; details: for MIC: NCTC11638, Helicobacter pylori (NCTC 11638), Brucella broth agar with horse blood, read-out: Minimum inhibitory concentration; for Inhibition of the growth of Helicobacter pylori (in words): comment on Table 8
[3] = system: Staphylococcus aureus (ATCC 6538P); test: Antiseptic action: MIC, agar plate dilution method; type: cell-based; details: ATCC6538P; Staphylococcus aureus (ATCC 6538P); read-out: Minimum inhibitory concentration
[4] = system: Bacillus cereus (IFO 3466); test: Antiseptic action: MIC, agar plate dilution method; type: cell-based; details: IFO3466; Bacillus cereus (IFO 3466); read-out: Minimum inhibitory concentration
[5] = Radical-entrapping action, nitro blue tetrazolium (NBT) method; type: biochemical; details: for Radical-entrapping action: one unit = 50% inhibition of formazan formation, xanthin oxidase/xanthin/NBT; for Radical-entrapping action (in words): comment on Table 11
Experimental: Then the formed formazan was quantified on spectro-chemical analysis. Either of the present physiologically active extracts was dissolved in a refined water to give an appropriate concentration, and the solutions were used for test samples. As a control it was provided by replacing the test samples with a refined water. The 50% inhibitory activity for the formation of formazan in the control was defined as a one unit activity of radical-entrapping action. Based of the definition, the radical-entrapping activity of one gram of each test sample was determined.

[6] = system: Pseudomonas aeruginosa (IFO 3453); test: Antiseptic action: MIC, agar plate dilution method; type: cell-based; details: IFO3453; Pseudomonas aeruginosa (IFO 3453); read-out: Minimum inhibitory concentration
HLC-1 cells = test: Antitumor action: growth inhibition, methylene blue staining; type: cell-based; details: Homo sapiens; HLC-1 cells, 48 hours; read-out: 50% growth inhibitory concentration
Experimental: (§1) Solutions in each well were serially diluted with a fresh preparation of the same RPMI1640 medium (pH 7.2) as used in the above. […] Each cell suspension was distributed to a microplate in a volume of 50 μl/well and incubated at 37° C. for 48 hours in a 5 v/v % CO2 incubator. To each microplate, a 25 v/v % aqueous glutaraldehyde solution was added in a volume of 20 μl/well, and the microplate was allowed to stand for 15 min to fix the cells. Then, the cells adhered to the wells were washed with water, admixed with a 0.05 w/v % aqueous methylene blue solution in a volume of 100 μl/well, and further allowed to stand for 15 min to stain the cells. Thereafter, an excessive amount of the staining solution was removed from the wells by washing with water, and the cells were dried, admixed with 300 μl/well of 0.33 N hydrochloric acid, stirred sufficiently, and measured for absorption at a wavelength of 620 nm. In parallel, as a control, a system free of a test sample was provided and treated similarly as in the test samples. […]

HGC-27 cells = test: as above; type: cell-based; details: Homo sapiens; HGC-27 cells, 48 hours; read-out: 50% growth inhibitory concentration
Experimental: as §1

HL-60 cells = test: as above; type: cell-based; details: Homo sapiens; HL-60 cells, 48 hours; read-out: 50% growth inhibitory concentration
Experimental: as §1

HBL-38 cells = details: for Relative value of 3H-thymidine uptake: HBL-38 cells, relative to positive control = 100
Experimental: (§2) […] of either of the above dilutes of Compound 7, 150 μl of the above cell suspension of HBL-38 cells treated with disperse, and 50 μl of a serum-free medium containing 5 μg/ml of lipopolysaccharide (LPS) were added to each well in a microplate, and the cells were incubated at 37° C. for 24 hours in a 5 v/v % CO2 incubator and used for test group. In parallel, as a negative control, a system with a serum-free medium in place of the serum-free medium containing LPS in the test group, and, as a positive group, a system with a serum medium in place of the dilute of Compound 7 in the test group were provided and treated similarly as in test group. After 24-hour incubation, 50 μl aliquots of supernatants from each well were collected. The collected supernatants were respectively subjected to conventional enzyme immunoassay using Gg23-901-530, obtained from National Institute of Health, Bethesda, Md., USA, as a standard for human interferon-γ, and quantified for interferon-γ production in each system. The cells in each well, from which the supernatants were removed, were mixed with 50 μl aliquots of a ^3H-thymidine solution with a radiation intensity of 5 μCi/ml in serum medium, and incubated at 37° C. for eight hours in a 5 v/v % CO2 incubator. Thereafter, the cells in each well in the microplate were collected with a glass filter, measured for radiation intensity by “DIRECT β-COUNTER MATRIX 96”, a β-ray detector commercialized by Packard Instrument Co., Conn., USA, and examined for ^3H-thymidine uptake by the cells in each well. […] In Table 13 the level of ^3H-thymidine uptake is expressed with a relative value (%) to the positive control.

interferon-γ production = details: HBL-38 cells + LPS; for Interferon-γ production level: 24 hours, positive control 5.468, negative control 1.367
Experimental: HBL-38 cells as an immunocompetent cell were cultured until proliferated to a prescribed cell density. After culturing, the proliferated HBL-38 cells were washed three times with RPMI1640 medium (pH 7.2) (hereinafter designated as “serum-free medium” in Experiment 15) by centrifugation, and adjusted to give a cell density of 1×10^8 cells/ml using the serum-free medium. To one milliliter of the cell suspension were added 4.5 ml of the serum-free medium and 0.5 ml of a disperse solution prepared by dissolving dispase, commercialized by Godo Shusei, Co., Ltd., Tokyo, Japan, in physiological saline to give a concentration of 10,000 units/ml, and the mixture was incubated at 37° C. for 90 min under shaking conditions. Thereafter, HBL-38 cells were washed three times with the serum medium by centrifugation and mixed with the serum medium into a cell suspension with a cell density of 1×10^6 cells/ml.
as §2

Question: Which results are given for `O=c1c(O)c(-c2ccc(O)cc2)oc2cc3c(c(O)c12)OCO3` [Compound 2, 3,5, 4′-trihydroxy-6,7-methylenedioxy-flavone]?
Answer: IC50 [1]: 14 µg/mL (≈ 44.6 µM); MIC [2]: 156 µg/mL (≈ 496 µM); MIC [3]: 313 µg/mL (≈ 996 µM); MIC [4]: 313 µg/mL (≈ 996 µM); Radical-entrapping action [5]: 1,830 unit/g; MIC [6]: 313 µg/mL (≈ 996 µM); IC50 (HLC-1 cells): 40.4 µg/mL (≈ 129 µM); IC50 (HGC-27 cells): 37.1 µg/mL (≈ 118 µM); IC50 (HL-60 cells): 244 µg/mL (≈ 775 µM)

Question: For `O=c1c(O)c(-c2ccc(O)cc2)oc2cc(O)cc(O)c12` [Compound 3, kaempferol], which MIC [2] is on record?
Answer: The MIC was 39 µg/mL (≈ 136 µM).

Question: And the “Inhibition of the growth of Helicobacter pylori (in words)” value [2]?
Answer: The value was “strongly inhibited the growth”.

Question: And the Radical-entrapping action [5]?
Answer: Its Radical-entrapping action is 14,000 unit/g.

Question: What does the source list for `COc1c(O)cc2oc(-c3ccc(O)cc3)c(O)c(=O)c2c1O` [Compound 4, 3,5,7,4′-tetrahydroxy-6-methoxy-flavone]?
Answer: MIC [2]: 39 µg/mL (≈ 123 µM); Inhibition of the growth of Helicobacter pylori (in words) [2]: strongly inhibited the growth; Radical-entrapping action [5]: 4,010 unit/g

Question: For `O=C(O)c1cc(O)c(O)c(O)c1` [Compound 5, gallic acid], which “Radical-entrapping action (in words)” value [5] is on record?
Answer: The value was “remarkable”.

Question: What about the Radical-entrapping action [5] of the same molecule?
Answer: Its Radical-entrapping action is 692,000 unit/g.

Question: With `O=C(O)/C=C/c1ccc(O)c(O)c1` [Compound 6, caffeic acid] as the molecule, how does the “Radical-entrapping action (in words)” value [5] read?
Answer: Its value is “remarkable”.

Question: What about the Radical-entrapping action [5] of the same molecule?
Answer: Its Radical-entrapping action is 418,000 unit/g.

Question: Which “Relative value of 3H-thymidine uptake” value (HBL-38 cells; 0.07 ng/ml) does the source give for `O=C1Nc2ccccc2/C1=C1/Nc2ccccc2C1=O` [Compound 7, 3-(1,3-dihydro-3-oxo-2H-indol-2-ylidene)-1,3-dihydro-2H-indol-2-one] here?
Answer: The value was 98.0%.

Question: And the “Relative value of 3H-thymidine uptake” value (HBL-38 cells; 0.15 ng/ml)?
Answer: The value was 98.3%.

Question: And the “Relative value of 3H-thymidine uptake” value (HBL-38 cells; 0.31 ng/ml)?
Answer: The value was 99.7%.

Question: And the “Relative value of 3H-thymidine uptake” value (HBL-38 cells; 0.62 ng/ml)?
Answer: Its value is 96.4%.

Question: What about the “Relative value of 3H-thymidine uptake” value (HBL-38 cells; 1.25 ng/ml) of the same molecule?
Answer: The value was 99.6%.

Question: What about the “Relative value of 3H-thymidine uptake” value (HBL-38 cells; 2.5 ng/ml) of the same molecule?
Answer: Its value is 105.7%.

Question: And the “Relative value of 3H-thymidine uptake” value (HBL-38 cells; 5.0 ng/ml)?
Answer: Its value is 101.1%.

Question: What about the “Relative value of 3H-thymidine uptake” value (HBL-38 cells; 10.0 ng/ml) of the same molecule?
Answer: Its value is 99.4%.

Question: And the “Level of 3H-thymidine uptake by HBL-38 cells, control vs test groups (in words)” value (HBL-38 cells; 0.07-10.0 ng/ml)?
Answer: The value was “no significant difference”.

Question: And the Interferon-γ production level (interferon-γ production; 0.07 ng/ml)?
Answer: Its Interferon-γ production level is 2.753 IU/ml.

Question: What about the Interferon-γ production level (interferon-γ production; 0.15 ng/ml) of the same molecule?
Answer: Its Interferon-γ production level is 2.195 IU/ml.

Question: And the Interferon-γ production level (interferon-γ production; 0.31 ng/ml)?
Answer: Its Interferon-γ production level is 1.979 IU/ml.

Question: And the Interferon-γ production level (interferon-γ production; 0.62 ng/ml)?
Answer: Its Interferon-γ production level is 1.958 IU/ml.

Question: What about the Interferon-γ production level (interferon-γ production; 1.25 ng/ml) of the same molecule?
Answer: Its Interferon-γ production level is 1.288 IU/ml.

Question: What about the Interferon-γ production level (interferon-γ production; 2.5 ng/ml) of the same molecule?
Answer: The Interferon-γ production level was 1.342 IU/ml.

Question: What about the Interferon-γ production level (interferon-γ production; 5.0 ng/ml) of the same molecule?
Answer: Its Interferon-γ production level is 0.932 IU/ml.

Question: And the Interferon-γ production level (interferon-γ production; 10.0 ng/ml)?
Answer: The Interferon-γ production level was 0.965 IU/ml.

Question: And the “Concentration at which interferon-γ production was inhibited to the same or lower level as the negative control free of LPS” value (interferon-γ production)?
Answer: Its value is “at least 1.25 ng/ml”.

Question: What about the “Inhibition of interferon-γ production (in words)” value (interferon-γ production) of the same molecule?
Answer: Its value is “inhibited the interferon-γ production dose-dependently”.
